This is an account of results in ChEMBL document CHEMBL4049385 (Bioorg Med Chem Lett, 2017).

Each structure is given as a SMILES string. Activity calls are given as the source filed them. No cut-off for these calls is given here.

Series [1] has as its target T1, Oxysterols receptor LXR-alpha (Homo sapiens) (UniProt Q13133).
T1 sequence (whole entry): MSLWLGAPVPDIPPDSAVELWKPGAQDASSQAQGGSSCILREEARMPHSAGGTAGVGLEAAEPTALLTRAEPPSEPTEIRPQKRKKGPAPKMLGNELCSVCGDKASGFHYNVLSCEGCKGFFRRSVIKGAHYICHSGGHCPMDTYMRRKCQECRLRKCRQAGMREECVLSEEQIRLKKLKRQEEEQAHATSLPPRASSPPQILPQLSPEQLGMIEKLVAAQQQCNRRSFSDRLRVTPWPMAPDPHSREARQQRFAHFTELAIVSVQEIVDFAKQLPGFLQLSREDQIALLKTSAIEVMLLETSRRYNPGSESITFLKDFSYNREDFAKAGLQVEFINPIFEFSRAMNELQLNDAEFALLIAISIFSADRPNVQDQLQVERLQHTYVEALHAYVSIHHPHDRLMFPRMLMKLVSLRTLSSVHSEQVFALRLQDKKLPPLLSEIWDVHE
Briefly: Agonist activity at recombinant human GAL4-DBD-fused LXRalpha-LBD expressed in HEK293T cells at 10 to 20 uM in presence of RXR-antagonist HX531 measured after 12 to 14 hrs by dual-glo luciferase reporter gene assay. The series is classed as cell-based. The settings on record: HEK-293T. (In general: A reporter such as luciferase makes a cellular process visible.)

In series [2] the target is T1, Oxysterols receptor LXR-alpha (Homo sapiens). In words: Partial agonist activity at recombinant human GAL4-DBD-fused LXRalpha-LBD expressed in HEK293T cells at 10 uM measured after 12 to 14 hrs by dual-glo luciferase reporter gene assay relative to T0901317. The series is classed as cell-based. The settings on record: HEK-293T.
Series [3] relates to HEK-293T. Briefly: Effect on recombinant firefly luciferase activity expressed in HEK293T cells at 10 uM after 12 to 14 hrs by luminescence assay. The format is ADME, cell-based. The settings on record: human.
Series [4] deals with T2, Oxysterols receptor LXR-beta (Homo sapiens, UniProt P55055).
T2 sequence (P55055 whole entry): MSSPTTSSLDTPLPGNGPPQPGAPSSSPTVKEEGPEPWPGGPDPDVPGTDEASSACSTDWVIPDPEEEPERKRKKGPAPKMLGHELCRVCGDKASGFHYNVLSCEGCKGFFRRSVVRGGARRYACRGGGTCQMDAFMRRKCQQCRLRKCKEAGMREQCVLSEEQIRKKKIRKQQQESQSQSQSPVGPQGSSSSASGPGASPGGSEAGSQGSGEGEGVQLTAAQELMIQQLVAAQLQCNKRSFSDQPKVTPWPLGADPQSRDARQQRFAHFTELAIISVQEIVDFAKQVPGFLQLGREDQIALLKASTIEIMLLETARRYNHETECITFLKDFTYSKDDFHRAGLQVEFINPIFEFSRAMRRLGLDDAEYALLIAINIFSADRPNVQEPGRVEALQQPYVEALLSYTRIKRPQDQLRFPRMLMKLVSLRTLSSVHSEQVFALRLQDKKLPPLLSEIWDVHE
Briefly: Partial agonist activity at recombinant human GAL4-DBD-fused LXRbeta-LBD expressed in HEK293T cells measured after 12 to 14 hrs by dual-glo luciferase reporter gene assay. The series is classed as cell-based, HEK-293T.

In series [5] the target is T1, Oxysterols receptor LXR-alpha (Homo sapiens). In words: Partial antagonist activity at recombinant human GAL4-DBD-fused LXRalpha-LBD expressed in HEK293T cells assessed as inhibition of GW3965-induced receptor activation at 10 uM after 12 to 14 hrs by dual-glo luciferase reporter gene assay. The series is classed as cell-based. Particulars: HEK-293T.
The target is the same in series [6]. In words: Partial antagonist activity at recombinant human GAL4-DBD-fused LXRalpha-LBD expressed in HEK293T cells assessed as inhibition of WAY252623-induced receptor activation at 10 uM after 12 to 14 hrs by dual-glo luciferase reporter gene assay. The series is classed as cell-based. Particulars: HEK-293T.
Series [7] has the same target. Briefly: Agonist activity at recombinant human GAL4-DBD-fused LXRalpha-LBD expressed in HEK293T cells at 10 uM in presence of LXR-agonist 22(R)-hydroxycholesterol measured after 12 to 14 hrs by dual-glo luciferase reporter gene assay. The series is classed as cell-based. Particulars: HEK-293T.
Series [8] is described as follows: Cmax in chronic hand eczema patient at 30 mg, po administered once daily for 24 weeks. The format is ADME, organism-based. Further details: dose 30 mg, route oral. The settings on record: human, in vivo.
The test system of series [9] is Homo sapiens. In words: Toxicity in chronic hand eczema patient assessed as increase in serum cholesterol level at 30 mg, po administered once daily for 24 weeks relative to control. The format is organism-based. The settings on record: in vivo, 4032 h.
Series [10] has as its system Homo sapiens. In words: Toxicity in chronic hand eczema patient assessed as increase in triglyceride level at 30 mg, po administered once daily for 24 weeks relative to control. The series is classed as organism-based. Particulars: in vivo, 4032 h.
In series [11] the target is T3, Oxysterols receptor LXR-beta (Homo sapiens) (UniProt P55055).
T3 sequence (whole entry): T2 sequence (P55055 whole entry)
Briefly: Partial agonist activity at recombinant human GAL4-DBD-fused LXRbeta-LBD expressed in HEK293T cells at 10 uM measured after 12 to 14 hrs by dual-glo luciferase reporter gene assay relative to T0901317. Particulars: HEK-293T. The format is cell-based.

Series [12] has as its target T1, Oxysterols receptor LXR-alpha (Homo sapiens). Briefly: Agonist activity at recombinant human GAL4-DBD-fused LXRalpha-LBD expressed in HEK293T cells at 10 uM in presence of RXR-antagonist HX531 measured after 12 to 14 hrs by dual-glo luciferase reporter gene assay. The format is cell-based. The settings on record: HEK-293T.
The target of series [13] is T4, Oxysterols receptor LXR-alpha (Homo sapiens, UniProt Q13133).
T4 sequence (Q13133 whole entry): T1 sequence (whole entry)
Briefly: Partial agonist activity at recombinant human GAL4-DBD-fused LXRalpha-LBD expressed in HEK293T cells measured after 12 to 14 hrs by dual-glo luciferase reporter gene assay. The format is cell-based, HEK-293T.

The target in series [14] is T1, Oxysterols receptor LXR-alpha (Homo sapiens). In words: Agonist activity at recombinant human GAL4-DBD-fused LXRalpha-LBD expressed in HEK293T cells at 1 uM in presence of LXR-agonist 22(R)-hydroxycholesterol measured after 12 to 14 hrs by dual-glo luciferase reporter gene assay. The settings on record: HEK-293T. The series is classed as cell-based.
Series [15] can be described thus: Cmax in patient with solid tumor at 300 mg/m2, po administered once daily. The series is classed as ADME, organism-based. Further details: route oral. Particulars: human, in vivo.
In series [16] the test system is HEK-293T. In words: Effect on recombinant firefly luciferase activity expressed in HEK293T cells at 1 uM after 12 to 14 hrs by luminescence assay. The series is classed as ADME, cell-based. The settings on record: human.
For series [17], the target named is T1, Oxysterols receptor LXR-alpha (Homo sapiens). In words: Partial antagonist activity at recombinant human GAL4-DBD-fused LXRalpha-LBD expressed in HEK293T cells assessed as inhibition of GW3965-induced receptor activation at 1 uM measured after 12 to 14 hrs by dual-glo luciferase reporter gene assay. The format is cell-based. The settings on record: HEK-293T.

The target is the same in series [18]. In words: Partial antagonist activity at recombinant human GAL4-DBD-fused LXRalpha-LBD expressed in HEK293T cells assessed as inhibition of WAY252623-induced receptor activation at 1 uM measured after 12 to 14 hrs by dual-glo luciferase reporter gene assay. The settings on record: HEK-293T. The format is cell-based.

With `CC(C)CC[C@@H](O)[C@@H](C)[C@H]1CC[C@H]2[C@@H]3CC=C4C[C@@H](O)CC[C@]4(C)[C@H]3CC[C@]12C`, the outcome in series [1] was Active.
On to `CC1=C(/C=C/C(C)=C\C=C\C(C)=C\C(=O)O)C(C)(C)CCC1` [ALITRETINOIN], for which the fold change (FC) in series [2] was found to be 1.39; in [11], 1.68. For the same molecule, the Activity result in series [3] was “Non-Toxic”; in series [9], 14%; in series [10], 8%. In addition, the EC50 in [4] was found to be 1730 nM. The inhibition result in [5] and in [6] was “Active” in each case. The result in series [7] and in series [12] was Active. For the same molecule, the peak level in [8] (Cmax) was 810 nM.
Take `C=C(c1ccc(C(=O)O)cc1)c1cc2c(cc1C)C(C)(C)CCC2(C)C` [BEXAROTENE]: the fold change (FC) in series [2] is 1.82; in series [11] it was 2.23. In addition, the EC50 in [13] worked out at 196 nM; in [4] it was 434 nM. For the same molecule, in series [14], the result was Active. The same molecule registered a Cmax in series [15] of 3390 nM. For the same molecule, the Activity result in series [16] is recorded as “Non-Toxic”. The inhibition result in series [17] and in series [18] was “Active” each time.
Take `Fc1ccc(-c2c3cccc(C(F)(F)F)c3nn2Cc2ccc(F)cc2Cl)cc1` [LXR-623]: the values for the EC50 in [13] and in [4] were 1440 nM and 900 nM, respectively.

One may read the EC50 as the midpoint of the concentration-response curve. For orientation: Cmax means the peak of the concentration-time curve.
